Patent publication US12186318B2, “Pharmaceutical composition for preventing or treating cancer comprising KSP inhibitor and mitosis inhibitor” (KOREA INSTITUTE OF SCIENCE AND TECHNOLOGY, priority 2020, dated 2025)

Tests used:
[1] = tested on: Kif15 gene; experiment: Kif15 expression at the gene level (qRT-PCR) in HeyA8-MDR cells; type: cell-based; settings: 50 nM siKSP and/or 2000 nM PTX, 48 hours
Description: Subsequently, total RNA was obtained respectively from the recovered cells using an RNeasy mini kit (Qiagen, US), cDNA was synthesized from the obtained total RNA using a TOPscript cDNA synthesis kit (Enzynomics, Korea), and PCR was performed using a StepOne qRT-PCR system (Thermo Fisher scientific) and primers specific to a Kif15 gene (SEQ ID NOS: 7 and 8) or primers specific to a β-actin gene (SEQ ID NOS: 5 and 6).
Thereafter, the levels of the amplified products obtained from the PCR were measured, and the measured levels were standardized with respect to an expression amount of β-actin, and then relative levels of Kif15 mRNA was calculated (FIG. 2C).

[2] = tested on: Kif15 protein; experiment: Kif15 expression at the protein level (western blot) in HeyA8-MDR cells; type: cell-based; settings: 50 nM siKSP and/or 2000 nM PTX, 48 hours
Description: The cells recovered in Example 3-3 above were analyzed by western blotting using an anti-Kif15 antibody (FIG. 2D).

[3] = tested on: HeyA8-MDR cells; experiment: Anti-cancer activity, MTT cell viability and Bliss independence; type: cell-based; settings: single agent, 0 to 200 nM liposome or 0 to 2000 nM paclitaxel, 48 hours
Description: The recovered cells were cultured in a fresh medium supplemented with a 10% MTT solution for 3 hours and formazan crystals generated by treatment with a Sorensen's glycine buffer and DMSO was dissolved therein. Thereafter, the absorbance thereof was measured at 570 nm and the cell viability was calculated using the same (FIG. 2G).
The cell viabilities of the cells were compared (FIG. 2H).
In addition, in order to quantitatively analyze a reduction level of the cell viability, the measured absorbance was applied to the following equation to calculate an expected inhibition level of cancer cells, and the obtained expected inhibition level was compared with an observed inhibition level of the cancer cells (FIGS. 2I to 2K). […] Expected inhibition level=FsiKSP-liposome+FPTX−(FsiKSP-liposome×FPTX)
Thereafter, cell viability inhibition levels and expected inhibition levels calculated therefrom were compared with each other (FIG. 2L). […] Expected Inhibition Level=Fa+Fb−(Fa×Fb)

[4] = tested on: HeyA8-MDR cancer cells; experiment: Anti-cancer effect in tumor mouse model; type: in vivo, BALB/c nude mouse; settings: 26 days after injection
Description: First, HeyA8-MDR cancer cells (1×10^8) were injected into the left thigh of a 5-week-old female BALB/c nude mouse, and then left until cancer tissue grew to a volume of about 50 mm3 to prepare 20 tumor mouse xenograft models.
Subsequently, at 26 days after injection of each of the samples, tumor tissue was excised from each tumor mouse model and weighed (FIG. 4B).
In addition, at 26 days after injection of each of the samples, tumor tissue was excised from each tumor mouse model, and tumor growth inhibition (TGI) rate was measured (FIG. 4C).

[5] = tested on: HeyA8-MDR cancer cells; experiment: TUNEL assay on tumor tissue of tumor mouse model; type: in vivo, BALB/c nude mouse
From the text: The tumor tissue of the respective groups excised in Example 4-2 above was subjected to a TUNEL assay to identify the level of apoptosis in the tumor tissue (FIG. 4I).

[6] = tested on: Kif15 mRNA; experiment: Kif15 mRNA level in drug-resistant PDX model; type: in vivo, mouse; settings: relative to control
Description: The levels of Kif15 mRNA expressed in tumor tissue of the respective groups excised in Example 4-4-2 above were measured by qRT-PCR as an application method of that of Example 3-3 (FIG. 5E).

[7] = tested on: drug-resistant PDX model; experiment: TUNEL assay on tumor-implanted kidney tissue of drug-resistant PDX model; type: in vivo, mouse
From the text: The tumor-implanted kidney tissue of the respective groups excised in Example 4-4-2 above was subjected to a TUNEL assay to identify the level of apoptosis in the tumor-implanted kidney tissue (FIG. 5H).

Question: Which results are given for `CC(=O)O[C@H]1C(=O)[C@@]2(C)[C@H]([C@H](OC(=O)c3ccccc3)[C@]3(O)C[C@H](OC(=O)[C@H](O)[C@@H](NC(=O)c4ccccc4)c4ccccc4)C(C)=C1C3(C)C)[C@]1(OC(C)=O)CO[C@@H]1C[C@@H]2O` [paclitaxel]?
Answer: expression level of the Kif15 gene [1]: inhibited; level of the Kif15 protein [2]: decreased; cell viability with increasing concentration [3]: decreases; tumor growth inhibition (TGI) rate [4]: about 13.1%; apoptosis in tumor tissue (TUNEL) [5]: not induced or induced in a low level; Kif15 mRNA level in tumor-implanted kidney tissue [6]: decreased; apoptosis in tumor-implanted kidney tissue (TUNEL) [7]: not induced or induced in a low level
